“And” between values parts separate entries of the source, which are not always exact repeats. Identical values can stand only once.
biological target: CDK2 (human) (UniProt P24941); assay: Enzyme Assay

Compound | IC50
Cc1ccc(CN2CCC(Nc3nc(N[C@H]4CC[C@H](N)CC4)nc4c3ncn4C3CCCC3)CC2)cc1 | 170 nM and 230 nM
COc1cccc(CN2CCC(Nc3nc(N[C@H]4CC[C@H](N)CC4)nc4c3ncn4C3CCCC3)CC2)c1 | 140 nM and 300 nM and 340 nM
Cc1ccc(CN2CCC(Nc3nc(N[C@H]4CC[C@H](N)CC4)nc4c3ncn4C3CCCC3)CC2)cc1Cl | 120 nM and 320 nM
N[C@H]1CC[C@H](Nc2nc(NC3CCN(Cc4cc(F)ccc4F)CC3)c3ncn(C4CCCC4)c3n2)CC1 | 670 nM and 220 nM and 510 nM

Further lines, results first:

IC50 | Compound
5.4 nM | N[C@H]1CC[C@H](Nc2nc(Nc3ccccc3)c3ncn(C4CCCC4)c3n2)CC1
240 nM and 110 nM and 80 nM | COc1ccccc1CN1CCC(Nc2nc(N[C@H]3CC[C@H](N)CC3)nc3c2ncn3C2CCCC2)CC1
1700 nM | N[C@H]1CC[C@H](Nc2nc(NC3CCN(Cc4ccc(F)cc4)CC3)c3ncn(C4CCCC4)c3n2)CC1
